Experimental data as given in patent US4833241A, “Anthracycline compound” (Kirin Beer Kabushiki Kaisha, priority 1986, dated 1989).
Read-outs that look alike come from different tables or passages of the source.

Columns and labels:
in vivo = conditions: mouse, iv
P388 leukemia = assay: Antitumor activity in CDF1 mice with intraperitoneally transplanted P388 leukemia, i.v. administration, 30-day survival; assay type: in vivo; conditions: for ED (T/C 130%): Mus musculus, 720 h; for Increase in life span T/C (%): days 1 and 5, saline control = 100%
[1] = Stability of M-R20X3 during measurements (1) through (4); assay type: physicochemical

## CC[C@]1(O)Cc2c(O)c3c(c(O)c2[C@@H](O[C@H]2C[C@H](N4CCOCC4)[C@H](O)[C@H](C)O2)C1)C(=O)c1c(O)cccc1C3=O [M-R20X, 3'-deamino-3'-(4-morpholinyl)-13-deoxocarminomycin]
In vivo
  LD50: 12.3 mg/kg
P388 leukemia; iv, i.v., P388 leukemia in CDF1 mice, read-out: Dose for T/C = 130%
  ED (T/C 130%): 2.5 mg/kg/day

## CC[C@@]1(O)C[C@H](O[C@H]2C[C@H](N3CCOCC3)[C@H](O)[C@H](C)O2)c2c(O)c3c(c(O)c2C1O)C(=O)c1cccc(O)c1C3=O (some centres unmarked) [M-R20X2, 3'-deamino-3'-(4-morpholinyl)-13-deoxo-10-hydroxycarminomycin]
In vivo
  LD50: 3.55 mg/kg
Acidic water, basic water, methanol, ethanol, propanol, acetone, ethyl acetate, and chloroform
  Solubility (soluble in): Soluble
water, hexane, cyclohexane, diethyl ether, and petroleum ether
  Solubility (insoluble in): Insoluble
P388 leukemia; P388, iv, read-out: Dose for T/C = 130% (mg/kg/day)
  ED (T/C 130%): 0.43 mg/kg/day
P388 leukemia; mouse, in vivo, iv
  Therapeutic index: 4.7

## COc1cccc2c1C(=O)c1c(O)c3c(c(O)c1C2=O)C[C@@](O)(C(=O)CO)C[C@@H]3O[C@H]1C[C@H](N)[C@H](O)[C@H](C)O1 [Adriamycin, reference compound]
P388 leukemia; 1 mg/kg/day i.v.
  Increase in life span T/C (%): 103%
P388 leukemia; 2 mg/kg/day i.v.
  Increase in life span T/C (%): 119%
P388 leukemia; 4 mg/kg/day i.v.
  Increase in life span T/C (%): 133%
P388 leukemia; 8 mg/kg/day i.v.
  Increase in life span T/C (%): 165%
P388 leukemia; 12 mg/kg/day i.v.
  Increase in life span T/C (%): 244%

## CC[C@@]1(O)C[C@H](O[C@H]2C[C@H](N3CCOCC3)[C@H](O)[C@H](C)O2)c2c(O)c3c(c(O)c2[C@H]1C(=O)O)C(=O)c1cccc(O)c1C3=O [M-R20X3, 3'-deamino-3'-(4-morpholinyl)-13-deoxo-10-hydroxycarbonylcarminomycin]
[1]
  Stability (lability): extremely labile
[1]; measurements (1) through (4) carried out quickly
  Decomposition after completion of the measurements: no decomposition was observed
